Read-outs that look alike come from different tables or passages of the source.
How the values were obtained:
RS4-11 (MLL-AF4) cells = assay: Long-term proliferation (LTP) assay, CellTiterGlo (Example 103); type: cell-based; settings: for IC50: Homo sapiens, RS4-11 (MLL-AF4), LTP assay
Description: (§1) The day of the experiment (TO) all the cell line suspensions were counted by Cell Viability Analyser, Vi-CELL and properly diluted with fresh medium to obtain the cell density reported in the Test System paragraph.
(§2) Cells were tested after 4 passages after thawing.
(§3) 200 μL/well and 150 μL/well of cell suspension were added into the 0.4 µL/well and 0.3 μL/well compound plates, respectively. • Cell plate containing 200 μL/well suspension was incubated at 37° C. in a humidified incubator with 5% CO2. • From each well of the 150 µL/well cell assay plate, 100 μL were harvested and transferred into a 96-well Optiplate (Perkin Elmer, Cat. n. 6005290) and cell viability was measured as described in 4.3 paragraphs (TO). • After four days in culture (T4) 150 μL/well of fresh medium were added into a new […] copy compound plate. • From each well of the 200 μL/well cell assay plate: • 100 μL were sampled for the cell viability measurement as described in 4.3 paragraphs (T4). • 50 μL were harvested and added to the 150 μL/well compound plate prepared as described in the first point to dilute 1:4 the cell suspension. • The cell assay plate diluted and containing 200 µL/well suspension were incubated at 37° C. in a humidified incubator with 5% CO2.
(§4) At T7-T11-T14 it was proceeded as described in T4, with the exception that no further cell dilution was carried out at T14.
(§5) Plates containing the samples to be tested were equilibrated at room temperature for approximately 30 min and then 30 μL/well of the Promega CellTiterGlo® reagent were added. Contents will be mixed for 5 min on an orbital shaker to induce cell lysis and then incubated at room temperature for an additional 10 min to stabilize the luminescent signal.
(§6) Luminescence was read by using VictorV (Perkin Elmer) multilabel plate reader using the standard protocol for luminescence in 96 well plate.
(§7) Data were expressed as % of inhibition compared to the 0.2% DMSO negative control, and was calculated as follows: % inhibition=100−[(RLU sample)×100/(RLU average controls*)] • *cells containing 0.2% DMSO
(§8) CRCs were analysed by GraphPad and IC50 values were calculated by non-linear regression using 4 parameter-logistic equation. IC50 (M) values were reported in the final data table.

HL-60 cells [1] = assay: as above; type: cell-based
Description: as §1, §2, §3, §4, §5, §6, §7, §8

MV4-11 (MLL-AF4) cells [2] = assay: as above; type: cell-based, human; settings: for IC50: Homo sapiens, MV4-11 (MLL-AF4), LTP assay
Description: as §1, §2, §3, §4, §5, §6, §7, §8

MOLM-13 (MLL-AF9) cells [3] = assay: as above; type: cell-based, human; settings: for IC50: Homo sapiens, MOLM-13 (MLL-AF9), LTP assay
Description: as §1, §2, §3, §4, §5, §6, §7, §8

[4] = target: T1, menin-MLL protein-protein interaction (Homo sapiens, UniProt O00255); settings: S. Xu et al. Angewandte Chemie; cited from earlier work
T1 sequence (O00255 1-610): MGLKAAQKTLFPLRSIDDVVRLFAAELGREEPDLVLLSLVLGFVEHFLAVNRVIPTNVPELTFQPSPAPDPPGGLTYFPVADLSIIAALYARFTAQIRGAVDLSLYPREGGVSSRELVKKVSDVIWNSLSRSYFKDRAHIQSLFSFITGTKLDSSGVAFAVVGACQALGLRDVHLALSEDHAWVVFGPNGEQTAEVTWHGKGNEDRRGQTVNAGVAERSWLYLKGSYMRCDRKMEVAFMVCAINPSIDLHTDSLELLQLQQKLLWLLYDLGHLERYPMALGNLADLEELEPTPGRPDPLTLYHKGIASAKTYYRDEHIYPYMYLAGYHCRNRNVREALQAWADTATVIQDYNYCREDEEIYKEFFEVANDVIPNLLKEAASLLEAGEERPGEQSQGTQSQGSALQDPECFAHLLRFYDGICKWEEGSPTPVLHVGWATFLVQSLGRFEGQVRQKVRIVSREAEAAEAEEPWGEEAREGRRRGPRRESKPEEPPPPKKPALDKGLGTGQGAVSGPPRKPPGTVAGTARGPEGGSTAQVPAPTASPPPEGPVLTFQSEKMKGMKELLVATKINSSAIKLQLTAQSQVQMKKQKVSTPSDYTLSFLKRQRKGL

HL-60 cells [5] = assay: Cell proliferation inhibition, CellTiterGlo viability assay, 4 days (Example 102); type: cell-based; settings: 4 days treatment, CellTiterGlo
Description: (§9) The objective of the study was to evaluate the ability of compounds of the invention, inhibitors of Menin/MLL interaction to inhibit cell proliferation. The proliferation inhibitory effect was investigated in two human MLL-leukemia cells selected on the bases of MLL fusion protein and listed in Table 1. HL-60 cell line was used as negative control (Table 3).
(§10) ATP is present in all metabolically active cells and is considered as a marker for cell viability and proliferation. The metabolic cell activity was determined using the CellTiter-Glo kit from Promega, an ATP monitoring system based on the production of luminescence by the reaction of ATP with added UltraGlo® recombinant luciferase (Kawano et al., 2016), according to the supplier's experimental recommendations.
(§11) The described assay evaluates the ability of representative compounds of invention to inhibit the cell proliferation in the human MLL-leukemia cells plus a negative control cell line.
(§12) The assay provides potency values (IC50) for each test compound at a single time point Day 4 (T4).
(§13) Seven concentrations of the NCEs (2.00E-05-6.67E-06-2.22E-06-7.41E-07-2.47E-07-8.23E-08-2.74E-08M), were assessed in duplicate in an individual test occasion in all the cell lines. MI-503 (Borkin et al., 2015) was used as reference compound and was tested at the same concentrations as the NCEs. 100% of proliferation is represented by the untreated cells (0.2% DMSO). The cell growth was monitored up to 4 days in culture.
(§14) MV4-11, MOLM-13 and HL-60 cells (see Table 2) were maintained in RPMI-1640 medium (Invitrogen, Cat. n. 618700, Batch n. 1965930) supplemented with 10% of Heat Inactivated FBS (Invitrogen, Cat n. 10500, Batch n. 08Q8078K) and 1% Pen-Strep (Invitrogen, Cat. N. 15140, Batch n. 1910859) and cultured at 37° C. in a humidified incubator with 5% CO2. All the cell lines grow in suspension and the cell density was maintained in a range of 2×10^5-1×10^6 viable cells/ml. Cells were pelleted at 130 g×5 min and conditioned medium was used to dilute the cell suspension.
(§15) Cells were plated in 96-well flat bottom microtiter plates at cell density of 15,000 cells/ml for HL-60, 1000 cells/ml for MOLM-13 and 10,000 cell/ml for MV4-11. Cells were treated with 0.2% DMSO (Sigma, D8418, batch n. SHBH4245V) or serial dilutions of compounds ([…]) in DMSO (0.2% final concentration). Cells were incubated in a 5% CO2 incubator at 37° C. for 4 days. A CellTiterGlo viability assay (Promega) was employed. Luminescence was read by using VictorV (Perkin Elmer) multilabel plate reader using the standard protocol for luminescence in 96 well plate. The experiment was performed in duplicate.
(§16) Data were expressed as % of inhibition compared to the 0.2% DMSO negative control, and was calculated as follows: % inhibition=100−[(RLU sample)×100/(RLU average controls*)]*cells containing 0.2% DMSO
(§17) CRCs were analysed by GraphPad and IC50 values were calculated by non-linear regression using 4 parameter-logistic equation. IC50 (μM) values were reported in the final data table. The curve fittings were performed leaving free all the parameters. Any constrain were reported in the results table.

MV4-11 (MLL-AF4) cells [6] = assay: as above; type: cell-based, human; settings: 4 days treatment
Description: as §9, §10, §11, §12, §13, §14, §15, §16, §17

MOLM-13 (MLL-AF9) cells [7] = assay: as above; type: cell-based, human; settings: 4 days treatment
Description: as §9, §10, §11, §12, §13, §14, §15, §16, §17

[8] = 168 h, Day 7, read-out: Day 7 IC50
[9] = 264 h, Day 11, read-out: Day 11 IC50
[10] = 336 h, Day 14, read-out: Day 14 IC50

For `C=CC(=O)NC1CN(c2ccnc(NC(=O)Nc3ccc(-c4nc5c(N6CCOCC6)nccc5[nH]4)cc3)c2)C1` [Compound 23], the IC50 (RS4-11 (MLL-AF4) cells; 96 h, Day 4, read-out: Day 4 IC50) was 1480 nM, the IC50 (RS4-11 (MLL-AF4) cells; [8]) was 930 nM and the IC50 (RS4-11 (MLL-AF4) cells; [9]) was over 5000 nM. The “effect on cell viability at T4” value (RS4-11 (MLL-AF4) cells; RS4;11, T4, increasing concentrations) was “showed an effect”, the IC50 (HL-60 cells [1]; Homo sapiens, 264 h, Day 11, LTP assay, read-out: Day 11 IC50) was over 5 µM and the “activity up to T14” value (HL-60 cells [1]; up to T14) was “absence of activity”. It also gave an IC50 (MV4-11 (MLL-AF4) cells [2]; [8]) of 4370 nM, an IC50 (MV4-11 (MLL-AF4) cells [2]; [9]) of 1700 nM and an IC50 (MV4-11 (MLL-AF4) cells [2]; [10]) of 1230 nM. For the same molecule, the “change of effect with the time in culture” value (MV4-11 (MLL-AF4) cells [2]; MV4-11, along the 14 days in culture) was “increase of the effect”, the IC50 (MOLM-13 (MLL-AF9) cells [3]; 96 h, heading: Day 4 IC50, Day 4, read-out: Day 4 IC50) was over 5 µM and the IC50 (MOLM-13 (MLL-AF9) cells [3]; 168 h, heading: Day 7 IC50, Day 7, read-out: Day 7 IC50) was over 5 µM. For the same molecule, the IC50 (MOLM-13 (MLL-AF9) cells [3]; [9]) was 1.41 µM, the IC50 (MOLM-13 (MLL-AF9) cells [3]; [10]) was 3.89 µM and the “change of effect with the time in culture” value (MOLM-13 (MLL-AF9) cells [3]; MOLM-13, along the 14 days in culture) was “increase of the effect”.

In the case of `COC(=O)N[C@H]1CCC[C@@H]1[C@](C#N)(c1cccc(F)c1)C1CCN(CC2CN(c3ccc(S(=O)(=O)C4CN(C(=O)/C=C/CN(C)C)C4)cc3)C2)CC1` [Compound M-525], the “potency relative to the corresponding reversible inhibitors” value [4] is given as over 30 times.

With `Cc1c(CN2CCC(Nc3ncnc4sc(CC(F)(F)F)cc34)CC2)ccc2c1cc(C#N)n2Cc1cn[nH]c1` [MI-503, reference compound] the “% max” value (HL-60 cells [5]) was 103%, the pIC50 (HL-60 cells [5]) was 6.38 and the IC50 (HL-60 cells [5]; read-out: IC50) was 420 nM. For the same molecule, the “% max” value (MV4-11 (MLL-AF4) cells [6]) was 100%, the pIC50 (MV4-11 (MLL-AF4) cells [6]) was 6.73 and the IC50 (MV4-11 (MLL-AF4) cells [6]; read-out: IC50) was 190 nM. The “% max” value (MOLM-13 (MLL-AF9) cells [7]) was 98%, the pIC50 (MOLM-13 (MLL-AF9) cells [7]) was 6.63 and the IC50 (MOLM-13 (MLL-AF9) cells [7]; read-out: IC50) was 230 nM.
